# Measured values as given in US12686665B2, “Bicyclic fused ring derivative or salt thereof and pharmaceutical composition comprising same” (YUHAN CORPORATION, priority 2021, dated 2026).
# Where a name gives a salt, the structure may show the parent alone.
# Target: T1, recombinant human Lysyl Oxidase-Like 2 (LOXL2) (Homo sapiens, UniProt Q9Y4K0)
# T1 construct: purchased R&D systems
# T1 sequence (Q9Y4K0 26-774): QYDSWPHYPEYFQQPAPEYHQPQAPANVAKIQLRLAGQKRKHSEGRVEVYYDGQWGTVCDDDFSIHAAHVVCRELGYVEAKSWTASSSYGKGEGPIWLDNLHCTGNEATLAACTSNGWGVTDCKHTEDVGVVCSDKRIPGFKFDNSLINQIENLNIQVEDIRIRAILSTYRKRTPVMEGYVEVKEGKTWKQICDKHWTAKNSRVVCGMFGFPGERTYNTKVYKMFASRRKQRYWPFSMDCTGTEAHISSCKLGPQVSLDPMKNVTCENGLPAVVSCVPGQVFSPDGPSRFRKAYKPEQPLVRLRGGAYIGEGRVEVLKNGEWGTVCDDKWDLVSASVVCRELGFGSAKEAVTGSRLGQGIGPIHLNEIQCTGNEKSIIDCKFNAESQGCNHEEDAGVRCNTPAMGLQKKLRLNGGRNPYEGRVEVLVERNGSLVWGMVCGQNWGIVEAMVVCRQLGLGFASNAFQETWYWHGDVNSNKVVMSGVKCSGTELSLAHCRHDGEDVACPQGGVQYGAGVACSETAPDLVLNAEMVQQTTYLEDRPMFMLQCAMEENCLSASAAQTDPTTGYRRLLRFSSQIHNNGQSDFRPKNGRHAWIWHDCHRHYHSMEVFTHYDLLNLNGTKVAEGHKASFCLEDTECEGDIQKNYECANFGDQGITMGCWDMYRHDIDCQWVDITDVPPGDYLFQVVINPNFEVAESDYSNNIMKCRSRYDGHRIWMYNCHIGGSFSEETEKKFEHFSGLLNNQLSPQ
# Experiment: Amplex Red HRP-coupled amine oxidase assay, recombinant human LOXL2
# Type: biochemical
# Settings: 60 min incubation with enzyme at 37° C., putrescine substrate, read-out: Inhibitory activity (IC50, nM) human LOXL2
# Procedure: The activities of the compounds according to the present invention against recombinant human Lysyl Oxidase-Like 2 (recombinant human LOXL2, R&D systems) were evaluated by measuring the levels of hydrogen peroxide in the HRP (horseradish peroxidase) coupled reactions, with the Amplex Red Hydrogen Peroxide Assay Kit (Molecular Probes, Invitrogen, USA). The tests were carried out at 37° C., and putrescine was used as a substrate. In the HRP coupling reaction, the oxidation of 10-acetyl-3,7-dihydroxyphenoxazine (Amplex Red reagent) by hydrogen peroxide generates a fluorescent product, i.e., resorufin. Briefly, the test compounds were dissolved in dimethyl sulfoxide (DMSO) at a concentration of 20 mM. Dose-response measurements were carried out by serial dilutions in DMSO to generate a six-point curve. The upper concentration was adjusted according to the potency of the compound, and then diluted with the reaction buffer to obtain a final DMSO concentration of 1%. Purified human LOXL2 in 50 mM sodium phosphate buffer (pH7.4) was added to each well of a 96 well black plate. The test compounds dissolved in DMSO were incubated with the human LOXL2 enzyme at 37° C. for 60 minutes. After the incubation for 60 minutes, a reaction mixture containing 400 μM Amplex Red reagent, 30 mM putrescine, and 2 U/mL HRP in 50 mM sodium phosphate buffer (pH 7.4) was added to each well. Fluorescence was measured with a microplate reader (Flexstation3, Molecular Devices), under the conditions of excitation at 530 nm and emission at 590 nm, 1 hour after the addition of the mixture. Inhibition by each compound was measured as % reduction in signal, compared to the control without an inhibitor (diluted DMSO only). The data were fixed to a four-variable logistic model, and […] values were calculated using the GraphPad Prism program.
row,SMILES,IC50 [nM]
1,"COC(=O)c1cc(-c2ccc(OC)c(S(=O)(=O)NC(C)C)c2)c2nnn(C/C(F)=C/CN)c2c1 [Example 121, methyl (Z)-1-(4-amino-2-fluorobut-2-en-1-yl)-4-(3-(N-isopropylsulfamoyl)-4-methoxyphenyl)-1H-benzo[d][1,2,3]triazol-6-carboxylate hydrochloride]",42.9
2,"COC(=O)c1cc(-c2cccc(S(=O)(=O)NCc3ccc(OC)cc3)c2)c2nnn(C/C(F)=C/CN)c2c1 [Example 125, methyl (Z)-1-(4-amino-2-fluorobut-2-en-1-yl)-4-(3-(N-(4-methoxybenzyl)sulfamoyl)phenyl)-1H-benzo[d][1,2,3]triazol-6-carboxylate hydrochloride]",70.6
3,"COC(=O)c1cc(-c2cc(S(=O)(=O)C(F)(F)F)ccc2C)c2nnn(C/C(F)=C/CN)c2c1 [Example 128, methyl (Z)-1-(4-amino-2-fluorobut-2-en-1-yl)-4-(2-methyl-5-((trifluoromethyl)sulfonyl)phenyl)-1H-benzo[d][1,2,3]triazol-6-carboxylate hydrochloride]",94.2
4,"CONC(=O)c1cc(-c2ccc(OC)c(S(=O)(=O)N(C)C)c2)c2nnn(C/C(F)=C/CN)c2c1 [Example 132, (Z)-1-(4-amino-2-fluorobut-2-en-1-yl)-4-(3-(N,N-dimethylsulfamoyl)-4-methoxyphenyl)-N-methoxy-1H-benzo[d][1,2,3]triazol-6-carboxamide hydrochloride]",18.7
5,"CONC(=O)c1cc(-c2cccc(S(=O)(=O)N3CCCC3)c2)c2nnn(C/C(F)=C/CN)c2c1 [Example 133, (Z)-1-(4-amino-2-fluorobut-2-en-1-yl)-N-methoxy-4-(3-(pyrrolidin-1-ylsulfonyl)phenyl)-1H-benzo[d][1,2,3]triazol-6-carboxamide hydrochloride]",24.4
6,"CNS(=O)(=O)c1ccc(OC)c(-c2cc(C(=O)NOC)cc3c2nnn3C/C(F)=C/CN)c1 [Example 134, (Z)-1-(4-amino-2-fluorobut-2-en-1-yl)-N-methoxy-4-(2-methoxy-5-(N-methylsulfamoyl)phenyl)-1H-benzo[d][1,2,3]triazol-6-carboxamide hydrochloride]",8
7,"CCN(CC)S(=O)(=O)c1ccc(OC)c(-c2cc(C(=O)NOC)cc3c2nnn3C/C(F)=C/CN)c1 [Example 135, (Z)-1-(4-amino-2-fluorobut-2-en-1-yl)-4-(5-(N,N-diethylsulfamoyl)-2-methoxyphenyl)-N-m ethoxy-1H-benzo[d][1,2,3]triazol-6-carboxamide hydrochloride]",35.6
8,"CON(C)C(=O)c1cc(-c2cccc(S(=O)(=O)N3CCCC3)c2)c2nnn(C/C(F)=C/CN)c2c1 [Example 137, (Z)-1-(4-amino-2-fluorobut-2-en-1-yl)-N-methoxy-N-methyl-4-(3-(pyrrolidin-1-ylsulfonyl)phenyl)-1H-benzo[d][1,2,3]triazol-6-carboxamide hydrochloride]",37
9,"CCN(CC)S(=O)(=O)c1ccc(OC)c(-c2cc(C(=O)N(C)OC)cc3c2nnn3C/C(F)=C/CN)c1 [Example 138, (Z)-1-(4-amino-2-fluorobut-2-en-1-yl)-4-(5-(N,N-diethylsulfamoyl)-2-methoxyphenyl)-N-m ethoxy-N-methyl-1H-benzo[d][1,2,3]triazol-6-carboxamide hydrochloride]",54.3
10,"CON(C)C(=O)c1cc(-c2cccc(S(=O)(=O)N(C)C)c2)c2nnn(C/C(F)=C/CN)c2c1 [Example 139, (Z)-1-(4-amino-2-fluorobut-2-en-1-yl)-4-(3-(N,N-dimethylsulfamoyl)phenyl)-N-methoxy-N-methyl-1H-benzo[d][1,2,3]triazol-6-carboxamide]",69.6
11,"CCn1nccc1-c1cc(C(F)(F)F)cc2c1ncn2C/C(F)=C/CN [Example 177, (Z)-4-(4-(1-ethyl-1H-pyrazol-5-yl)-6-(trifluoromethyl)-1H-benzo[d]imidazol-1-yl]-3-fluoro-but-2-en-1-amine hydrochloride]",419
12,"CC(C)n1nccc1-c1cc(C(F)(F)F)cc2c1ncn2C/C(F)=C/CN [Example 178, (Z)-3-fluoro-4-(4-(1-isopropyl-1H-pyrazol-5-yl)-6-(trifluoromethyl)-1H-benzo[d]imidazol-1-yl)but-2-en-1-amine hydrochloride]",463
13,"Cn1nc(C(F)(F)F)cc1-c1cc(C(F)(F)F)cc2c1ncn2C/C(F)=C/CN [Example 179, (Z)-3-fluoro-4-(4-[1-methyl-3-(trifluoromethyl)-1H-pyrazol-5-yl]-6-(trifluoromethyl)-1H-benzo[d]imidazol-1-yl)but-2-en-1-amine hydrochloride]",506
14,"NC/C=C(\F)Cn1cnc2c(-c3cnn(CCO)c3)cc(C(F)(F)F)cc21 [Example 180, (Z)-2-(4-(1-(4-amino-2-fluorobut-2-en-1-yl)-6-(trifluoromethyl)-1H-benzo[d]imidazol-4-yl)-1H-pyrazol-1-yl)ethan-1-ol hydrochloride]",323

# The next lines start with the values.
row,IC50 [nM],SMILES
1,52.4,"COC(=O)c1cc(-c2cccc(S(=O)(=O)N3CCCC3)c2)c2nnn(C/C(F)=C/CN)c2c1 [Example 116, methyl (Z)-1-(4-amino-2-fluorobut-2-en-1-yl)-4-(3-(pyrrolidin-1-ylsulfonyl)phenyl)-1H-benzo[d][1,2,3]triazol-6-carboxylate hydrochloride]"
2,34,"COC(=O)c1cc(-c2cccc(S(C)(=O)=O)c2)c2nnn(C/C(F)=C/CN)c2c1 [Example 118, methyl (Z)-1-(4-amino-2-fluorobut-2-en-1-yl)-4-(3-(methylsulfonyl)phenyl)-1H-benzo[d][1,2,3]triazol-6-carboxylate hydrochloride]"
3,32.2,"COC(=O)c1cc(-c2cccc(S(=O)(=O)NC3CC3)c2)c2nnn(C/C(F)=C/CN)c2c1 [Example 122, methyl (Z)-1-(4-amino-2-fluorobut-2-en-1-yl)-4-(3-(N-cyclopropylsulfamoyl)phenyl)-1H-benzo[d][1,2,3]triazol-6-carboxylate hydrochloride]"
4,12.6,"CNS(=O)(=O)c1cccc(-c2cc(C(=O)OC)cc3c2nnn3C/C(F)=C/CN)c1 [Example 123, methyl (Z)-1-(4-amino-2-fluorobut-2-en-1-yl)-4-(3-(N-methylsulfamoyl)phenyl)-1H-benzo[d][1,2,3]triazol-6-carboxylate hydrochloride]"
5,14.2,"COC(=O)c1cc(-c2cccc(S(=O)(=O)N(C)C)c2)c2nnn(C/C(F)=C/CN)c2c1 [Example 124, methyl (Z)-1-(4-amino-2-fluorobut-2-en-1-yl)-4-(3-(N,N-dimethylsulfamoyl)phenyl)-1H-benzo[d][1,2,3]triazol-6-carboxylate hydrochloride]"
6,19,"CCS(=O)(=O)c1cccc(-c2cc(C(=O)OC)cc3c2nnn3C/C(F)=C/CN)c1 [Example 127, methyl (Z)-1-(4-amino-2-fluorobut-2-en-1-yl)-4-(3-(ethylsulfonyl)phenyl)-1H-benzo[d][1,2,3]triazol-6-carboxylate hydrochloride]"
7,6.4,"CONC(=O)c1cc(-c2cc(S(=O)(=O)NC3CC3)ccc2OC)c2nnn(C/C(F)=C/CN)c2c1 [Example 136, (Z)-1-(4-amino-2-fluorobut-2-en-1-yl)-4-(5-(N-cyclopropylsulfamoyl)-2-methoxyphenyl)-N-methoxy-1H-benzo[d][1,2,3]triazol-6-carboxamide hydrochloride]"
